In data set [1] the target is T1, AT4 receptor (Bos taurus, UniProt F1N1Q8).
T1 sequence (F1N1Q8 1-1022): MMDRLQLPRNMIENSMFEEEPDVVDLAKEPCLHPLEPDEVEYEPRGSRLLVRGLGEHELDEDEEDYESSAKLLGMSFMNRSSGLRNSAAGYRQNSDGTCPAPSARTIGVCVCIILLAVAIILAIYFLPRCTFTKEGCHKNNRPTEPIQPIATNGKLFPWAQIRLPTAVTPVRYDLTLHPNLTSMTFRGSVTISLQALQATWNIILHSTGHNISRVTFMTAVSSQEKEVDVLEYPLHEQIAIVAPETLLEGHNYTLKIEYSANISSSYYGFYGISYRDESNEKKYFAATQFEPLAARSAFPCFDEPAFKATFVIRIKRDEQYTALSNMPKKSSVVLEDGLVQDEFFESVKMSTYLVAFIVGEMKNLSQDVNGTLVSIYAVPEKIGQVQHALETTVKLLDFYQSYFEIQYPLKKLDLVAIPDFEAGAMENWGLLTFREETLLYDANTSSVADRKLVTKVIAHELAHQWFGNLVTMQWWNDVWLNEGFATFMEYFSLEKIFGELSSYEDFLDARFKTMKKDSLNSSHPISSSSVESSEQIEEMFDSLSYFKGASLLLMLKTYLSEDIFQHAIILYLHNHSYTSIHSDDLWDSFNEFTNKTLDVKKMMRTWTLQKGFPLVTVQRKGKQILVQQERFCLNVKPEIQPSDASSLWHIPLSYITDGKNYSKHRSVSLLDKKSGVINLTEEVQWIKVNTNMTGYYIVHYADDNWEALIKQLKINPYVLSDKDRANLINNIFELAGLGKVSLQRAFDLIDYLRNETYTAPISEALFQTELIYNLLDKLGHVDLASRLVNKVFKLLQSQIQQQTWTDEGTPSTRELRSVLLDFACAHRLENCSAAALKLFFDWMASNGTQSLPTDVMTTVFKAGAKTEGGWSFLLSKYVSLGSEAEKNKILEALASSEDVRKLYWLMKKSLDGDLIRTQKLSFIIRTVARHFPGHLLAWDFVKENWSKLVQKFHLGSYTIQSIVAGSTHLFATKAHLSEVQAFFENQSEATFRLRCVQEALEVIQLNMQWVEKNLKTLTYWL
The data set is described as follows: 125I-AIV binding and competition, bovine adrenal cortical membranes.

Data set [2] addresses T2, AT1 receptor (AII receptor) (Bos taurus, UniProt P25104).
T2 construct: from tissue; host or cells: bovine adrenal cortex membranes
T2 sequence (P25104 1-359): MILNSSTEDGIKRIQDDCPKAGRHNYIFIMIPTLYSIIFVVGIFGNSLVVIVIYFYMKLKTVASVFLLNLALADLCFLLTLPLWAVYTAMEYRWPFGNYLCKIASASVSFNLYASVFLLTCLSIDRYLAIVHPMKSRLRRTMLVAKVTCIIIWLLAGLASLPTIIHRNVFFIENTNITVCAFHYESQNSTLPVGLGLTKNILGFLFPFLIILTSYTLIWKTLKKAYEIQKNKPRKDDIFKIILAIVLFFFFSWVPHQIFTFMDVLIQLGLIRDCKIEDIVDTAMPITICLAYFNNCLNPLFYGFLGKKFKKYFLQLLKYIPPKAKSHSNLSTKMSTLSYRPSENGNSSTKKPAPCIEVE
The format is binding, bovine. Particulars: competition.

The target in data set [3] is T1, AT4 receptor. As to the kind of experiment: 125I-AIV binding and competition, solubilized bovine adrenal cortical receptor.
Data set [4] relates to AT4 receptor. The format is binding, rat. Particulars: brain, heart, kidney, aorta, lung, liver, cultured smooth muscle cells. As to the method: A second major approach to defining separate and distinct binding sites was to examine their relative tissue and species distribution (Table 8).
*25 μg of membrane protein was incubated with 500,000 cpm of label.
Specific binding was defined as total […]
At this time, the significance of this finding is uncertain.

Data set [5] relates to rat kidney. The data set is described as follows: Renal cortical blood flow (laser doppler) and arterial pressure after infusion into the renal artery. The format is in vivo.
Data set [6] relates to rats. The data set is described as follows: Passive avoidance conditioning after icv injection. It counts as in vivo, rat.
Data set [7] relates to bovine endothelial cells. The data set is described as follows: Endothelial cell growth (thymidine incorporation) and EDRF production. It counts as cell-based. The method, then:
Cells were grown at 37° C. in 35 mm culture plates […] under 5% CO2 /95% air in Dulbecco's Modified Eagle's Medium (DMEM) supplemented with 5 μg/ml insulin and 10% (v/v) newborn bovine serum (NBBS). […] Negative controls were also included using ethidium bromide (1 mM). The cells were harvested at various times, and cellular lysates were prepared for scintillation counting by lysing and washing the cells on glass fiber filters.
Bovine aortic endothelial cells were grown at 37° C. in 35 mm culture plates under 5% CO2 in air in Dulbecco's Modified Eagle's Medium (DMEM) supplemented with 5 μg/ml insulin and 10% (v/v) newborn bovine serum (NBBS). The medium was aspirated 10-12 hours after seeding and replaced with serum-free medium. The medium was again aspirated 10-12 hours later and replaced with either test or control medium. Control medium was DMEM with 5 µg/ml insulin and 2%, 5%, or 10% (v/v) NBBS as indicated. […] The medium was changed every 48 h (i.e., with supportive DMEM medium for the remainder of the experiment).
As an adjunct to the determination of cell numbers, thymidine incorporation was measured. […] This material was then filtered under vacuum through 2.4 cm glass fiber filters (GF/A, Whatman), and the filters were washed twice with 10 ml of absolute ethanol and assayed for radioactivity by scintillation counting.

In data set [8] the test system is cardiocytes. As to the kind of experiment: Hypertrophic action of AII on cardiocytes. The format is cell-based.
For data set [9] the following is noted: arterial and venous blood in man; cited from earlier work.
The target of data set [10] is T1, AT4 receptor. As to the kind of experiment: 125I-AIV binding, aortic endothelial cell (BAEC) membranes. More on the design: species or system bovine. Conditions: 0.6 nM 125I-AIV.
Data set [11] relates to AT1 receptors. As to the kind of experiment: GTPγS effect on 125I-AII binding, rat vascular smooth muscle cell (RVSMC) membranes. Particulars: 0.5 nM 125I-AII.

Entries after “also recorded” stand apart in the source; their conditions may differ. Some results are limits rather than exact numbers.

In general, Ki refers to a dissociation constant, usually derived from enzyme kinetics or from competition with a known ligand.

`CC[C@H](C)[C@H](NC(=O)[C@H](Cc1ccc(O)cc1)NC(=O)[C@@H](N)C(C)C)C(=O)N[C@@H](Cc1cnc[nH]1)C(=O)N1CCC[C@H]1C(=O)N[C@@H](Cc1ccccc1)C(=O)O` [AIV, Val1 Tyr2 Ile3 His4 Pro5 Phe6]: the Bmax in data set [1] was 3.82±1.12. Further, the Ki in data set [2] is more than 1000 nM. Also, the “off-rate t1/2” value in data set [3] came out at 4.873 h. For the same compound, the “binding in rat tissues (in words)” value in data set [4] is on record as “not been possible to demonstrate binding”. Further, in data set [5] (infusion into renal artery), the “effect on renal blood flow (in words)” value was “profound and long-lasting increase in blood flow; also recorded: equally dramatic increase in flow; also recorded: dramatically increase renal blood flow and urine flow in a dose-dependent fashion”. Also, the “effect of preinfusion on blood flow response to another ligand” value in data set [5] (rat, in vivo) is given as “completely blocked the constrictive action of AII”. The “agonist / antagonist activity (in words)” value in data set [5] (renal blood flow response compared to AIV) is “full agnoistic activity”. Also, the “passive avoidance latency / cognitive effect (in words)” value in [6] is recorded as “significantly elevated latency times”. Moreover, in data set [7], the EDRF production result is listed as “stimulating production of endothelial cell relaxing factor (EDRF)” and the “endothelial cell proliferation (thymidine incorporation)” value is given as “enhancing cellular proliferation”. Besides, the “effect on hypertrophic action of AII” value in data set [8] is recorded as “antagonizes the hypertrophic action of AII”. Besides, the half-lives in data set [9] was 1.9 min.

Take `Nc1nc2c(ncn2[C@@H]2O[C@H](COP(=O)(O)OP(=O)(O)OP(O)(O)=S)[C@@H](O)[C@H]2O)c(=O)[nH]1` [GTPγS]: the “effect on 125I-AIV binding” value in [10] is on record as “no effect; also recorded: did not inhibit (or alter) binding”. The “effect on 125I-AII binding” value in data set [11] is recorded as “inhibited”.

(Values after patent US5854388A, “Angiotensin IV peptides and receptor” (Washington State University Research Foundation, priority 1994, dated 1998).)
